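GI50: concentration for 50% inhibition of growth. TGI: total growth inhibition.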
Columns and labels:
Assay in all cases: growth of human tumour cells (NCI), 384-well format
COLO 205 colon = system: COLO 205 colon
HOP-92 NSCLC = system: HOP-92 NSCLC
NCI-H522 lung = system: NCI-H522 lung
OVCAR-3 ovarian = system: OVCAR-3 ovarian
M14 melanoma = system: M14 melanoma
SNB-19 CNS = system: SNB-19 CNS
SK-MEL-5 melanoma = system: SK-MEL-5 melanoma
CAKI-1 renal = system: CAKI-1 renal
HCT-15 colon = system: HCT-15 colon
UACC-62 melanoma = system: UACC-62 melanoma
CCRF-CEM leukemia = system: CCRF-CEM leukemia
A498 renal = system: A498 renal
MOLT-4 leukemia = system: MOLT-4 leukemia
NCI-H460 NSCLC = system: NCI-H460 NSCLC
MCF7 breast = system: MCF7 breast
U251 glioblastoma = system: U251 glioblastoma
HL-60(TB) leukemia = system: HL-60(TB) leukemia
MDA-MB-435 melanoma = system: MDA-MB-435 melanoma
NCI/ADR-RES ovarian = system: NCI/ADR-RES ovarian
KM12 colon = system: KM12 colon
SK-MEL-28 melanoma = system: SK-MEL-28 melanoma
HS 578T breast = system: HS 578T breast
SNB-75 CNS = system: SNB-75 CNS
K-562 leukemia = system: K-562 leukemia
LOX IMVI melanoma = system: LOX IMVI melanoma
MALME-3M melanoma = system: MALME-3M melanoma
HOP-62 NSCLC = system: HOP-62 NSCLC
DU-145 prostate = system: DU-145 prostate
NCI-H23 lung = system: NCI-H23 lung
BT-549 breast = system: BT-549 breast
NCI-H322M lung = system: NCI-H322M lung
A549 NSCLC = system: A549 NSCLC
MDA-MB-468 breast = system: MDA-MB-468 breast
IGROV1 ovarian = system: IGROV1 ovarian
UO-31 renal = system: UO-31 renal
NCI-H226 lung = system: NCI-H226 lung
SN12C renal = system: SN12C renal
TK-10 renal = system: TK-10 renal
HCC-2998 colon = system: HCC-2998 colon
SK-OV-3 ovarian = system: SK-OV-3 ovarian
UACC-257 melanoma = system: UACC-257 melanoma
RPMI-8226 leukemia = system: RPMI-8226 leukemia
SF-539 CNS = system: SF-539 CNS
T-47D breast = system: T-47D breast
EKVX NSCLC = system: EKVX NSCLC
OVCAR-5 ovarian = system: OVCAR-5 ovarian
SF-295 CNS = system: SF-295 CNS
SW-620 colon = system: SW-620 colon
OVCAR-4 ovarian = system: OVCAR-4 ovarian
RXF 393 renal = system: RXF 393 renal
HT29 colon = system: HT29 colon
MDA-MB-231 breast = system: MDA-MB-231 breast
786-0 renal = system: 786-0 renal
OVCAR-8 ovarian = system: OVCAR-8 ovarian
HCT-116 colon = system: HCT-116 colon
SF-268 CNS = system: SF-268 CNS
ACHN renal = system: ACHN renal
PC-3 prostate = system: PC-3 prostate

COc1c(Nc2ncc(Cl)c(N[C@@H]3[C@H]4C=CC(C4)[C@@H]3C(N)=O)n2)ccc2c1CC[C@@H](N1CCOCC1)CC2
GI50 (COLO 205 colon): 1110 nM
TGI (COLO 205 colon): 2690 nM
GI50 (HOP-92 NSCLC): 1300 nM
TGI (HOP-92 NSCLC): 3.26 µM
GI50 (NCI-H522 lung): 1440 nM
TGI (NCI-H522 lung): 3.7 µM
GI50 (OVCAR-3 ovarian): 3.11 µM
TGI (OVCAR-3 ovarian): 11.8 µM
GI50 (M14 melanoma): 817 nM
TGI (M14 melanoma): 2570 nM
GI50 (SNB-19 CNS): 5.1 µM
TGI (SNB-19 CNS): 17.4 µM
GI50 (SK-MEL-5 melanoma): 1370 nM
TGI (SK-MEL-5 melanoma): 6.79 µM
GI50 (CAKI-1 renal): 1350 nM
TGI (CAKI-1 renal): 2780 nM
GI50 (HCT-15 colon): 2150 nM
TGI (HCT-15 colon): 10.1 µM
GI50 (UACC-62 melanoma): 688 nM
TGI (UACC-62 melanoma): 2920 nM
GI50 (CCRF-CEM leukemia): 1510 nM
TGI (CCRF-CEM leukemia): 3.03 µM
GI50 (A498 renal): 1950 nM
TGI (A498 renal): 10.6 µM
GI50 (MOLT-4 leukemia): 311 nM
TGI (MOLT-4 leukemia): 1430 nM
GI50 (NCI-H460 NSCLC): 1960 nM
TGI (NCI-H460 NSCLC): 5.26 µM
GI50 (MCF7 breast): 1750 nM
TGI (MCF7 breast): 11.9 µM
GI50 (U251 glioblastoma): 1760 nM
TGI (U251 glioblastoma): 6.5 µM
GI50 (HL-60(TB) leukemia): 1550 nM
TGI (HL-60(TB) leukemia): 3.01 µM
GI50 (MDA-MB-435 melanoma): 1700 nM
TGI (MDA-MB-435 melanoma): 8.33 µM
GI50 (NCI/ADR-RES ovarian): 1970 nM
TGI (NCI/ADR-RES ovarian): 4.66 µM
GI50 (KM12 colon): 1680 nM
TGI (KM12 colon): 10.4 µM
GI50 (SK-MEL-28 melanoma): 1540 nM
TGI (SK-MEL-28 melanoma): 5.22 µM
GI50 (HS 578T breast): 1560 nM
TGI (HS 578T breast): 2970 nM
GI50 (SNB-75 CNS): 1290 nM
TGI (SNB-75 CNS): 2770 nM
GI50 (K-562 leukemia): 1780 nM
TGI (K-562 leukemia): 3.68 µM
GI50 (LOX IMVI melanoma): 1330 nM
TGI (LOX IMVI melanoma): 2680 nM
GI50 (MALME-3M melanoma): 866 nM
TGI (MALME-3M melanoma): 2660 nM
GI50 (HOP-62 NSCLC): 1700 nM
TGI (HOP-62 NSCLC): 5.36 µM
GI50 (DU-145 prostate): 2880 nM
TGI (DU-145 prostate): 12.3 µM
GI50 (NCI-H23 lung): 1680 nM
TGI (NCI-H23 lung): 5.94 µM
GI50 (BT-549 breast): 1620 nM
TGI (BT-549 breast): 3.16 µM
GI50 (NCI-H322M lung): 2750 nM
TGI (NCI-H322M lung): 11.5 µM
GI50 (A549 NSCLC): 1270 nM
TGI (A549 NSCLC): 5.57 µM
GI50 (MDA-MB-468 breast): 1280 nM
TGI (MDA-MB-468 breast): 2990 nM
GI50 (IGROV1 ovarian): 1400 nM
TGI (IGROV1 ovarian): 9.59 µM
GI50 (UO-31 renal): 1560 nM
TGI (UO-31 renal): 4.9 µM
GI50 (NCI-H226 lung): 676 nM
TGI (NCI-H226 lung): 4.67 µM
GI50 (SN12C renal): 1190 nM
TGI (SN12C renal): 5.33 µM
GI50 (TK-10 renal): 2290 nM
TGI (TK-10 renal): 7.86 µM
GI50 (HCC-2998 colon): 1240 nM
TGI (HCC-2998 colon): 3.09 µM
GI50 (SK-OV-3 ovarian): 1780 nM
TGI (SK-OV-3 ovarian): 7.55 µM
GI50 (UACC-257 melanoma): 1510 nM
TGI (UACC-257 melanoma): 3.53 µM
GI50 (RPMI-8226 leukemia): 1210 nM
TGI (RPMI-8226 leukemia): 3000 nM
GI50 (SF-539 CNS): 1250 nM
TGI (SF-539 CNS): 2570 nM
GI50 (T-47D breast): 1940 nM
TGI (T-47D breast): 5.31 µM
GI50 (EKVX NSCLC): 1500 nM
TGI (EKVX NSCLC): 4.53 µM
GI50 (OVCAR-5 ovarian): 1350 nM
TGI (OVCAR-5 ovarian): 4.58 µM
GI50 (SF-295 CNS): 1950 nM
TGI (SF-295 CNS): 10.3 µM
GI50 (SW-620 colon): 1660 nM
TGI (SW-620 colon): 3.25 µM
GI50 (OVCAR-4 ovarian): 7.05 µM
TGI (OVCAR-4 ovarian): 19.6 µM
GI50 (RXF 393 renal): 1580 nM
TGI (RXF 393 renal): 3.17 µM
GI50 (HT29 colon): 1240 nM
TGI (HT29 colon): 2580 nM
GI50 (MDA-MB-231 breast): 1540 nM
TGI (MDA-MB-231 breast): 6.14 µM
GI50 ([…]-0 renal): 1480 nM
TGI (786-0 renal): 2940 nM
GI50 (OVCAR-8 ovarian): 2700 nM
TGI (OVCAR-8 ovarian): 9.48 µM
GI50 (HCT-116 colon): 1270 nM
TGI (HCT-116 colon): 2620 nM
GI50 (SF-268 CNS): 206 nM
TGI (SF-268 CNS): 2500 nM
GI50 (ACHN renal): 2160 nM
TGI (ACHN renal): 9.25 µM
GI50 (PC-3 prostate): 2270 nM
TGI (PC-3 prostate): 8.98 µM

— PubChem BioAssay (NCI)
